Laboratory results reported in ChEMBL document CHEMBL3046561, “Feeding deterrents from Dictamnus dasycarpus Turcz against two stored-product insects” (J Agric Food Chem, 2002).

Assays:
Assay type in all cases: functional, organism-based
Tribolium castaneum [1] = assay: Antifeedant activity against larvae of Tribolium castaneum (red flour beetle) after 3 days
Sitophilus zeamais = assay: Antifeedant activity against adult of Sitophilus zeamais after 3 days
Tribolium castaneum [2] = assay: Antifeedant activity against adult of Tribolium castaneum (red flour beetle) after 3 days

SMILES | EC50 (Tribolium castaneum [1]) [ppm] | EC50 (Sitophilus zeamais) [ppm] | EC50 (Tribolium castaneum [2]) [ppm]
CC(=O)O[C@@H]1C[C@H](O)[C@@]23CO[C@@H](O)[C@]1(C)[C@@H]2C[C@@H](O)[C@]1(C)[C@@H]3C(=O)[C@H](OC(C)=O)[C@@]2(C)[C@H](c3ccoc3)C[C@H]3O[C@]321 [TOOSENDANIN] | 48 | 100 | 66
C/C=C(\C)C(=O)O[C@H]1C[C@@H](OC(C)=O)[C@@]2(C(=O)OC)CO[C@H]3[C@@H](O)[C@@](C)([C@]45O[C@@]4(C)[C@@H]4C[C@H]5O[C@@H]5OC=C[C@@]54O)[C@H]4[C@]1(CO[C@]4(O)C(=O)OC)[C@@H]32 [AZADIRACHTIN A] | 47.9 | 91.7 | 57.6
